From US20220160812A1, “A PHARMACEUTICALLY ACTIVE SUBSTANCE” (Cytopharma GmbH, priority 2019, published 2022)

System: A375 melanoma cells
Assay: subG1 cell cycle FACS apoptosis assay, A375 melanoma cells
Assay type: cell-based, human
Conditions: A375, Protocol A
Procedure: To transfer adherent cells (A375 and BxPC-3 cells) after culture, cells are washed twice with PBS. To detach the cells, the enzyme biotase is used according to the manufacturer's instructions. For this purpose, after washing with PBS, the cells are mixed with biotase (5 ml of biotase solution per 75 cm^2 surface of the cell culture bottles) and incubated for 5 min at 37 degrees Celsius, and the biotase is separated by centrifugation. Cells cultivated in suspension (MEC-1 and lymphocytes) were transferred by dilution. The cells are suspended in culture medium and counted, each time 1.5×10^5 cells/cm^2 are seeded in 48-well plates and cultured for between 1.5 and 24 hours at 37 degrees Celsius, 5% CO2. Peptides are pre-diluted from stock solution with culture medium and 200 μl of peptide solution added so that final concentrations of 30 to 500 μM peptide are present in at most 1% (v/v) DMSO. As control solutions, culture medium without peptide (DMSO-containing) in culture medium or etoposide solution is added. After incubating the cells for several hours, the cell supernatant is transferred to a FACS tube for each batch and, after washing the cells with PBS, the wash solution is added. Then the cells are incubated with 200 μl of biotase solution for 10 min, 37° C., the cells with the biotase are also transferred to the FACS tube and the cells are collected by centrifugation for 5 min. The cell pellet is suspended in 500 μl of serum-free culture medium, then 1.5 ml of cold 80% ethanol (ethanol/PBS-80/20, v/v, stored at −20° C.) is added, the FACS tubes sealed and stored at −20 degrees Celsius for 15 to 18 h. Thereafter, the cells are centrifuged for 5 minutes at 120 g, suspended after removal of the supernatant in 2 ml PBS and incubated at 37 degrees Celsius for 30 minutes. After re-centrifugation, the cells are suspended in 0.5 ml DAPI solution and incubated for 15 min at 20 degrees Celsius in the dark. Thereafter, the cells are stored dark for a maximum of four hours in an ice bath, followed by the FACS analysis.
The adherent cells (A375 and BxPC-3 cells and MDA-MB-231, respectively) are seeded 24 hours before induction in 6-well plates in culture medium. For this, the cells are washed with PBS, then incubated with trypsin/EDTA solution at 37 degrees Celsius and suspended in culture medium. The 6-well plates are loaded with 1×10^5 cells/cm^2 in culture medium and the cells incubated for 24 hours until induction with the peptides in the incubator. For induction, the peptides are diluted in fresh culture medium. As control solutions, culture medium without peptide (DMSO-containing) in culture medium or etoposide solution is added. The cells are washed with PBS. Thereafter the peptide solution in culture medium is added to the cells. After incubation in the incubator (37° C., 5% CO2) between 1.5 and 24 hours, the cell supernatant is transferred to 15 ml centrifuge tubes, the cells are washed with 0.75 ml PBS and then with 0.5 ml versene solution. Both washings are combined with the cell supernatant. The cells are then added with 0.5 ml of trypsin/EDTA solution and incubated at about 37° C. for at most 10 minutes until the cells detached. The cell suspension is combined with cell supernatant and washings and centrifuged at about 130 g for about 10 minutes. After removing the supernatant, the cells are suspended in 400 μl of cell culture medium (without serum) and mixed with 1.2 ml of 80% ethanol/20% PBS (v/v) and incubated for 1 to 7 days at −20° C. For analysis, the cells are centrifuged at 130 g for 10 min, suspended in 2 ml PBS, and centrifuged again for 5 min. The cells are suspended in 700 μl PI buffer and incubated for 10 min at 37° C. in the dark. Subsequently, the cells are stored dark for a maximum of four hours in an ice bath, then the FACS analysis is performed.
The proportion of cells which have died was determined by two methods, both rely on the analysis of cells by flow cytometry, often called FACS analysis. […]

| Substance | apoptosis efficiency (subG1), comparison in words (200 μM, about 24 hours, FIG. 4) | apoptosis level (subG1), comparison in words (100 μM, FIG. 6) | apoptosis efficiency (subG1) in view of Peptide SEQ C1 (100 μM, about 24 hours, FIG. 4) | apoptosis level (subG1) (200 μM and above, incubation about 3 hours, FIG. 6) | apoptosis efficiency (subG1) in view of Peptide SEQ C1 (200 μM, about 24 hours, FIG. 4) | apoptosis efficiency (subG1), comparison in words (200 μM, incubation 1.5 h, 3 h and 6 h, FIG. 6) | apoptosis efficiency (subG1), comparison in words (300 μM, all incubation times (1.5, 3, 6, 24 h), FIG. 6) | apoptosis efficiency (subG1), comparison in words (any concentration (50, 100, 200 μM), about 24 hours, FIG. 4) | apoptosis efficiency (subG1), comparison in words (200 μM, incubation 24 h, FIG. 6) |
| --- | --- | --- | --- | --- | --- | --- | --- | --- | --- |
| k-s-q-t-v-k-k-w-m-v-v-y-f-r-k [SEQID No 29] | higher efficiency at 200 μM in view of Peptide SEQID No 37 | – | – | – | – | – | – | – | – |
| k-s-q-t-v-q-k-w-m-v-v-y-f-r-k [SEQID No 36] | – | slightly improved apoptosis level in view of peptide SEQID NO 27 | at least fivefold | high apoptosis level | at least tenfold | improvement over Peptides SEQID NO 37 and SEQID NO 27 | improvement with regard to all incubation times over Peptides SEQID NO 37 and SEQID NO 27 | clear improvement over Peptides SEQID NO 37 and SEQID NO 29 at any concentration | – |
| s-q-t-v-q-k-w-m-v-v-y-f-r-k [SEQID No 37] | – | slightly improved apoptosis level in view of peptide SEQID NO 27 | – | – | – | – | – | – | best results |
